Converted amounts (≈) assume the structure as drawn. Like-named read-outs stand apart in the source and are kept apart here.
Columns and labels:
[1] = test system: Fluoroquinolone Sensitive Strains; test: In-vitro antimicrobial test, MIC by two-fold serial agar dilution (NCCLS): fluoroquinolone sensitive strains (Table 17); type: cell-based
Description: (§1) The test method was in accordance with the standard NCCLS protocol (Methods for Dilution Antimicrobial Susceptibility Tests for Bacteria that grow Aerobicially, Approved Standards, M7-A5, Fifth Edition, January 2000).
(§2) The antibacterial activities (minimum inhibitory concentration: MIC, mcg/ml) were determined by using the two-fold serial agar dilution method recommended by NCCLS. The media used for preculture and main culture were Tryptic Soya broth (Difco) and Mueller Hinton medium (Difco), respectively. The Mueller Hinton agar was supplemented with 5% sheep blood for streptococci. Overnight cultures were diluted with buffered saline (pH 7.2) to the final cell density of 5×10^6-10^7 CFU/ml, and each bacterial suspension was applied with a replicator (Denley's multipoint inoculator, UK) onto a series of Mueller-Hinton agar plates containing antibacterial agents at various concentrations. Final inoculum was approximately 10^4 CFU/spot. The plates were incubated for 18 hrs at 37° C. The MIC was defined as the lowest concentration of an antibacterial agent that inhibits the development of visible microbial growth on agar.

[2] = Phototoxicity, oral dose and UVA exposure, mice; settings: UVA 4 hours for 4 consecutive days, dose causing ear erythema and oedema
Description: The stock solutions for different doses were prepared freshly on the day of experimentation. Appropriate concentration of each dose was chosen to give a constant dosage volume of 0.3-0.4 ml/20 g body weight of mouse. The treated mice were exposed to UVA light source immediately after dosing for 4 hours and for 4 consecutive days. The mean light intensity in the UVA chamber was adjusted to 0.9-1.2 mW/cm^2. The total irradiation dose was approximately 18 Joules/cm^2/day. A phototoxic dose is one which causes ear erythema and oeadema.

[3] = test system: Multidrug-Resistant (MDR) Pneumococcal Infections; test: In-vivo antimicrobial test: systemic infection model (mouse septicemia), oral ED50 (Table 22); set-up: species or system Swiss mice; settings: oral 1 hour and 5 hours post-infection, survival on day 7, strain resistant to β-lactams, macrolides and fluoroquinolones
Description: The in vivo efficacy was studied through mouse septicemia model of infection in Swiss male and female mice (4 weeks old, 20+2 g weight) using 6 animals in each group. Infective organisms were inoculated intraperitonially. Compound were administered by oral route 1 hour and 5 hours post-infection. […] Appropriate comparators were included in the study.

[4] = test system: Fluoroquinolone-Resistant Strains; test: In-vitro antimicrobial test, MIC by agar dilution (NCCLS): fluoroquinolone-resistant strains (Table 18); type: cell-based
Description: as §1, §2

[5] = test system: Trovafloxacin-Resistant and Vancomycin-Resistant Enterococci; test: In-vitro antimicrobial test, MIC by agar dilution (NCCLS): enterococci (Table 19); type: cell-based; settings: for MIC: read-out: MIC, V R E 336
Text: The comparative antimicrobial activity of representative compounds of the invention and reference compounds against various sensitive and resistant microorganisms is given in Tables 17 to 20. The test method was in accordance with the standard NCCLS protocol (Methods for Dilution Antimicrobial Susceptibility Tests for Bacteria that grow Aerobicially, Approved Standards, M7-A5, Fifth Edition, January 2000).
as §2

MRSA 5027 = type: cell-based
[6] = test system: V79 (Chinese Hamster Lung); test: Cytotoxicity test (Alamar blue), V79 cells (Table 23); type: cell-based; settings: minimum drug concentration inhibiting Alamar blue color change, 3 hrs drug exposure, then 96 hrs incubation
Description: (§3) Compounds were evaluated for their cytotoxic potential against two […] viz. […] Freshly grown cells were distributed in microtiter plates at a cell density of 10^5-10^6 cells/well and allowed to adhere and form monolayer by incubating the microtiter plate at 37° C. for 24 hrs. […] Following 3 hrs. of drug exposure, cells were washed with D-MEM and incubated further for 96 hrs. Cytotoxic effects of drugs were monitored through daily microscopic observation and by ascertaining the metabolic status through redox indicator Alamar blue. Healthy actively metabolising cells bring about colour change of Alamar blue from blue to pink within an overnight incubation. Cytotoxic drugs inhibit this reaction resulting into blue coloured wells. Minimum drug concentration inhibiting Alamar blue color change i.e. resulting into blue coloured wells for a given drug is considered cytotoxic concentration.

J 744 (mouse macrophage) = test: Cytotoxicity test (Alamar blue), J 744 cells (Table 23); type: cell-based; settings: minimum drug concentration inhibiting Alamar blue color change; 3 hrs drug exposure, then 96 hrs incubation; J 744 mouse macrophage cells
Description: as §3

[7] = test system: Clinical Isolate MRSA 5076 with Mutations in DNA Gyrase and Topoisomerase IV as well as bearing an Efflux Pump; type: cell-based
Description: as §1, §2

[8] = vancomycin-resistant Enterococcus faecium 336
[9] = Enterococcus faecalis, ATCC29212, E. faecalis ATCC 29212, read-out: MIC, E. faecalis ATCC 29212

COc1c(N2CCC(N)C(C)(C)C2)c(F)cc2c(=O)c(C(=O)O)cn(C3CC3)c12 (single isomer, unassigned; (-)) [Compound 20, (−)-1-Cyclopropyl-6-fluoro-1,4-dihydro-8-mehtoxy-7-(4-amino-3,3-dimethyl-1-piperidinyl)-4-oxo-quinoline-3-carboxylic acid]
MIC, E. coli ATCC 25922 [1]: 0.2 µg/mL (≈ 0.496 µM) | phototoxic dose [2]: greater than 500 mg/kg | ED50 p.o. MDR S. pneumoniae 718 [3]: 50 mg/kg | MIC, Cipro^R S. sanguis 941 [4]: 0.4 µg/mL (≈ 0.991 µM) | MIC, FQ^R S. pneumoniae 718 [4]: 0.8 µg/mL (≈ 1.98 µM) | MIC, MRSA 032 [4]: 0.8 µg/mL (≈ 1.98 µM)

C[C@@H]1CN(c2c(F)c(N)c3c(=O)c(C(=O)O)cn(C4CC4)c3c2F)C[C@H](C)N1 [sparfloxacin, reference compound]
phototoxic dose [2]: 25 mg/kg

COc1c(N2CCC(N)C(C)(C)C2)c(F)cc2c(=O)c(C(=O)O)cn(C3CC3)c12 (single isomer, unassigned; (+)) [Compound 19, (+)-1-Cyclopropyl-6-fluoro-1,4-dihydro-8-mehtoxy-7-(4-amino-3,3-dimethyl-1-piperidinyl)-4-oxo-quinoline-3-carboxylic acid]
MIC, E. coli ATCC 25922 [1]: 0.2 µg/mL (≈ 0.496 µM) | phototoxic dose [2]: greater than 500 mg/kg | ED50 p.o. MDR S. pneumoniae 718 [3]: 20 mg/kg | MIC, Cipro^R S. mitis 938 [4]: 0.8 µg/mL (≈ 1.98 µM) | MIC, Cipro^R S. sanguis 941 [4]: 0.2 µg/mL (≈ 0.496 µM) | MIC, FQ^R S. pneumoniae 718 [4]: 0.4 µg/mL (≈ 0.991 µM) | MIC, MRSA 032 [4]: 0.8 µg/mL (≈ 1.98 µM)

Cc1c(N2CCC(O)C(C)C2)c(F)cc2c(=O)c(C(=O)O)cn(C3CC3)c12 (mixture of isomers) [Compound 84, cis/trans-1-Cyclopropyl-6-fluoro-8-methyl-7-(4-hydroxy-3-methyl-1-piperidinyl)-1,4-dihydro-4-oxo-quinoline-3-carboxylic acid]
MIC, E. coli ATCC 25922 [1]: 0.2 µg/mL | MIC, E. faecalis ATCC 29212 ([1]; E. faecalis ATCC 29212): 0.05 µg/mL | MIC, MSSA ATCC 25923 ([1]; MSSA ATCC 25923): 0.003 µg/mL | MIC, P. aeruginosa 27853 ([1]; P. aeruginosa 27853): 3.12 µg/mL | MIC, S. pneumoniae ATCC 49619 ([1]; S. pneumoniae ATCC 49619): 0.025 µg/mL | MIC, S. sanguis ATCC 10556 ([1]; S. sanguis ATCC 10556 (Viridans Streptococci)): 0.05 µg/mL | MIC, Trova-Resist MRSE 110 ([5]; Trovafloxacin-resistant methicillin-resistant S. epidermidis 110): 0.4 µg/mL | MIC, V R E 336 [5, 8]: 3.12 µg/mL | MIC, Cipro^R S. mitis 938 [4]: 0.4 µg/mL | MIC, Cipro^R S. sanguis 941 [4]: 0.4 µg/mL | MIC, FQ^R S. pneumoniae 718 [4]: 0.8 µg/mL | MIC, MRSA 032 [4]: 0.2 µg/mL

COc1c(N2CCC(N)C(C)(C)C2)c(F)cc2c(=O)c(C(=O)O)cn(C3CC3)c12 (racemic) [Compound 18, (±)-1-Cyclopropyl-6-fluoro-1,4-dihydro-8-mehtoxy-7-(4-amino-3,3-dimethyl-1-piperidinyl)-4-oxo-quinoline-3-carboxylic acid]
MIC against MRSA 5027 after 10 passage in drug containing medium (MRSA 5027; after 10 passages): 0.4 µg/mL (≈ 0.991 µM) | MIC against MRSA 5027, initially (MRSA 5027; before passages in drug-containing medium): 0.4 µg/mL (≈ 0.991 µM) | MIC, E. coli ATCC 25922 [1]: 0.2 µg/mL (≈ 0.496 µM) | phototoxic dose [2]: greater than 500 mg/kg | ED50 p.o. MDR S. pneumoniae 718 [3]: 30 mg/kg | MIC, Cipro^R S. sanguis 941 [4]: 0.4 µg/mL (≈ 0.991 µM) | MIC, FQ^R S. pneumoniae 718 [4]: 0.8 µg/mL (≈ 1.98 µM) | MIC, MRSA 032 [4]: 0.8 µg/mL (≈ 1.98 µM)

Cc1c(N2CC[C@H](O)[C@H](C)C2)c(F)cc2c(=O)c(C(=O)O)cn(C3CC3)c12 (relative stereo) [Compound 85, cis-1-Cyclopropyl-6-fluoro-8-methyl-7-(4-hydroxy-3-methyl-1-piperidinyl)-1,4-dihydro-4-oxo-quinoline-3-carboxylic acid]
Cytotoxic concentration, V 79 CHL [6]: >1000 µg/mL | MIC [1, 9]: 0.1 µg/mL (≈ 0.267 µM) | MIC ([1]; S. sanguis ATCC 10556 (Viridans Streptococci), read-out: MIC, S. sanguis ATCC 10556): 0.025 µg/mL (≈ 0.0668 µM) | MIC [5, 8]: 3.12 µg/mL (≈ 8.33 µM) | Cytotoxic concentration, J 744 Macrophage (J 744 (mouse macrophage)): >1000 µg/mL

COc1c(N2CCC(NC(=O)OC(C)(C)C)C(C)(C)C2)c(F)cc2c(=O)c(C(=O)O)cn(C3CC3)c12 (stereo not shown) [Compound 23, 1-Cyclopropyl-6-fluoro-1,4-dihydro-8-methoxy-7-(4-t-butyloxycarbonylamino-3,3-dimethyl-1-piperidinyl)-4-oxo-quinoline-3-carboxylic acid]
melting point: 218 to 220 °C

Cc1c(N2CC[C@@H](O)[C@H](C)C2)c(F)cc2c(=O)c(C(=O)O)cn(C3CC3)c12 (relative stereo) [Compound 86, trans-1-Cyclopropyl-6-fluoro-8-methyl-7-(4-hydroxy-3-methyl-1-piperidinyl)-1,4-dihydro-4-oxo-quinoline-3-carboxylic acid]
Cytotoxic concentration, V 79 CHL [6]: >1000 µg/mL | MIC [1, 9]: 0.05 µg/mL (≈ 0.134 µM) | MIC, MRSA 5076 + efflux inhibitor reserpine [7]: 0.2 µg/mL | MIC [5, 8]: 3.12 µg/mL (≈ 8.33 µM) | melting point: 214 to 216 °C | Cytotoxic concentration, J 744 Macrophage (J 744 (mouse macrophage)): >1000 µg/mL
